From patent US8183351B2, “Avermectin derivatives” (Bayer Cropscience AG, priority 2006, dated 2012)

Experiments:
Assay type in all cases: in vivo
Lucilia cuprina larvae = assay: Lucilia cuprina test (LUCICU); details: treated horsemeat
Experimental: Lucilia cuprina Test (LUCICU)
Description for Examples A and B
(§1) • Solvent: Dimethyl sulphoxide
To produce a suitable preparation of active compound, 1 part by weight of active compound is mixed with the stated amount of water and the concentrate is diluted with water to the desired concentration.
Containers containing horsemeat treated with the active compound preparation of the desired concentration are populated with Lucilia cuprina larvae.
After the desired period of time, the kill in % is determined. 100% means that all larvae have been killed; 0% means that none of the larvae have been killed.
(§2) In this test, for example, the following compounds of the preparation examples show good activity: see table

adult Musca domestica = assay: Musca domestica test (MUSCDO); details: Example C, treated sponge
Experimental: Musca domestica Test (MUSCDO)
as §1
To produce a suitable preparation of active compound, 1 part by weight of active compound is mixed with the stated amount of water, and the concentrate is diluted with water to the desired concentration.
Containers containing a sponge treated with the preparation of active compound of the desired concentration are populated with adult Musca domestica.
After the desired period of time, the kill in % is determined. 100% means that all flies have been killed; 0% means that none of the flies have been killed.
as §2

[1] = tested on: larvae of the mustard beetle (Phaedon cochleariae); assay: Phaedon test (PHAECO spray treatment); details: 4 ppm active compound, sprayed Chinese cabbage discs
Experimental: Phaedon Test (PHAECO Spray Treatment)
• Solvents: 78 parts by weight of acetone • 1.5 parts by weight of dimethylformamide • Emulsifier: 0.5 part by weight of alkylaryl polyglyycol ether
After the desired period of time, the effect in % is determined. 100% means that all beetle larvae have been killed; 0% means that none of the beetle larvae have been killed.

[2] = tested on: eggs, larvae and pupae of the whitefly (Bemisia tabaci); assay: Bemisia tabaci test, normally sensitive strains (BEMITA); details: Example E; 0.8 ppm active compound; sprayed cotton plants
Experimental: Bemisia tabaci Test, Normally Sensitive Strains, (BEMITA)
• Solvent: 7 parts by weight of dimethylformamide • Emulsifier: 10 parts by weight of alkylaryl polyglycol ether
(§3) To produce a suitable preparation of active compound, 1 part by weight of active compound is mixed with the stated amounts of solvents and emulsifier, and the concentrate is diluted with emulsifier-containing water to the desired concentration.
Cotton plants (Gossypium hirsutum) infected by eggs, larvae and pupae of the whitefly (Bemisia tabaci) are treated by being sprayed with the preparation of active compound at the desired concentration.
After the desired period of time, the kill in % is determined 100% means that all animals have been killed; 0% means that none of the animals have been killed.
as §2

[3] = tested on: greenhouse red spider mite (Tetranychus urticae); assay: Tetranychus test, OP-resistant (TETRUR spray treatment); details: sprayed bean leaf discs
Experimental: Tetranychus Test, OP-resistant (TETRUR Spray Treatment)
• Solvents: 78 parts by weight of acetone • 1.5 parts by weight of dimethylformamide • Emulsifier: 0.5 part by weight of alkylaryl polyglycol ether
as §3
Discs of bean leaves (Phaseolus vulgaris) heavily infested by all stages of the greenhouse red spider mite (Tetranychus urticae) are sprayed with a preparation of active compound of the desired concentration.
After the desired period of time, the effect in % is determined 100% means that all spider mites have been killed; 0% means that none of the spider mites have been killed.
as §2

[4] = tested on: caterpillars of the army worm (Spodoptera frugiperda); assay: Spodoptera frugiperda test (SPODFR spray treatment); details: Example I; 4 ppm active compound; sprayed maize leaf discs
Experimental: Spodoptera frugiperda Test (SPODFR Spray Treatment)
• Solvents: 78.0 parts by weight of acetone • 1.5 parts by weight of dimethylformamide • Emulsifier: 0.5 part by weight of alkylaryl polyglyycol ether
After the desired period of time, the effect in % is determined. 100% means that all caterpillars have been killed; 0% means that none of the caterpillars have been killed.

[5] = tested on: unfed adult fleas (Ctenocephalides felis); assay: Ctenocephalides felis; oral (CTECFE); details: Example J; 4 ppm active compound in citrated cattle blood, oral uptake
Experimental: Ctenocephalides felis; Oral (CTECFE)
as §1
To produce a suitable preparation of active compound, 1 part by weight of active compound is mixed with the stated amount of solvent. Part of the concentrate is diluted with citrated cattle blood, and the desired concentration is prepared.
20 unfed adult fleas (Ctenocephalides felis) are placed into a chamber whose top and bottom ends are closed with gauze. A metal cylinder whose bottom end is closed with parafilm is placed onto the chamber. The cylinder contains the blood/active compound preparation, which can be taken up by the fleas through the parafilm membrane. The blood is warmed to 37° C., but the flea chamber is at room temperature.
After the desired period of time, the kill in % is determined. 100% means that all fleas have been killed; 0% means that none of the fleas have been killed.
as §2

[6] = Example A, 0.8 ppm active compound
[7] = Example F, 0.00128 ppm active compound
[8] = Example H, 0.032 ppm active compound

Compound | Kill rate in % after 2 days (Lucilia cuprina larvae; [6]) [%] | Kill rate in % after 2 days (adult Musca domestica; 100 ppm active compound) [%] | Kill rate in % after 7 days ([1]; Example G) [%] | Kill rate in % after 2 days [5] [%] | further results
4′-O-acetyl-4′-O-de(2,6-dideoxy-3-O-methyl-α-L-arabino-hexopyrano-syl)-5-O-demethyl-avermectin A1a [reference compound] | 30 | 60 | – | – | Kill rate in % after 2 days (Lucilia cuprina larvae; Example B, 0.16 ppm active compound): 0%; Kill rate in % after 2 days (adult Musca domestica; 0.8 ppm active compound): 0%; Kill rate in % after 7 days ([1]; Example D): 0%; Kill rate in % after 7 days [2]: 0%; Kill rate in % after 5 days [3, 7]: 0%
COC1CC(OC2C(C)=CCC3CC(CC4(CCC(C)C(C(C)C)O4)O3)OC(=O)C3C=C(C)C(O)C4OCC(=CC=CC2C)C34O)OC(C)C1OC(C)=O [4′-O-acetyl-4′-O-de(2,6-dideoxy-3-O-methyl-α-L-arabino-hexopyranosyl)-5-O-demethyl-25-de(1-methylpropyl)-22,23-dihydro-25-(1-methylethyl)-avermectin A1a, reference compound] | – | – | 0 | 20 | Kill rate in % after 5 days [3, 8]: 0%; Kill rate in % after 5 days [4]: 0%
CC[C@H](C)[C@H]1OC2(C=C[C@@H]1C)C[C@@H]1C[C@@H](C/C=C(\C)[C@@H](OC3CC(OC)C(OC(=O)c4ccccc4)C(C)O3)[C@@H](C)/C=C/C=C3\CO[C@@H]4[C@H](O)C(C)=CC(C(=O)O1)[C@]34O)O2 (some centres unmarked) [Example 2] | – | – | – | – | Kill rate in % after 5 days [3, 7]: 80%
CC[C@H](C)[C@H]1OC2(C=C[C@@H]1C)C[C@@H]1C[C@@H](C/C=C(\C)[C@@H](OC3CC(OC)C(OC(=O)C4(C)COCOC4)C(C)O3)[C@@H](C)/C=C/C=C3\CO[C@@H]4[C@H](O)C(C)=CC(C(=O)O1)[C@]34O)O2 (some centres unmarked) [Example 14] | 100 | – | – | – | Kill rate in % after 7 days [2]: 80%
CC[C@H](C)[C@H]1OC2(CC[C@@H]1C)C[C@@H]1C[C@@H](C/C=C(\C)[C@@H](OC3CC(OC)C(OC(=O)C(C)(C)n4cncn4)C(C)O3)[C@@H](C)/C=C/C=C3\CO[C@@H]4[C@H](O)C(C)=CC(C(=O)O1)[C@]34O)O2 (some centres unmarked) [Example 23] | – | – | 100 | – | Kill rate in % after 5 days [3, 8]: 70%
CC[C@H](C)[C@H]1OC2(C=C[C@@H]1C)C[C@@H]1C[C@@H](C/C=C(\C)[C@@H](OC3CC(OC)C(OC(=O)CN4CCCCC4)C(C)O3)[C@@H](C)/C=C/C=C3\CO[C@@H]4[C@H](O)C(C)=CC(C(=O)O1)[C@]34O)O2 (some centres unmarked) [Example 50] | 100 | 90 | 83 | 50 | Kill rate in % after 5 days [4]: 100%
CC[C@H](C)[C@H]1OC2(C=C[C@@H]1C)C[C@@H]1C[C@@H](C/C=C(\C)[C@@H](OC3CC(OC)C(OC(=O)CN(C)C)C(C)O3)[C@@H](C)/C=C/C=C3\CO[C@@H]4[C@H](O)C(C)=CC(C(=O)O1)[C@]34O)O2 (some centres unmarked) [Example 57] | 100 | 90 | 100 | 40 | –
CC[C@H](C)[C@H]1OC2(C=C[C@@H]1C)C[C@@H]1C[C@@H](C/C=C(\C)[C@@H](OC3CC(OC)C(OC(=O)Cc4nn(C)c(=O)n4C)C(C)O3)[C@@H](C)/C=C/C=C3\CO[C@@H]4[C@H](O)C(C)=CC(C(=O)O1)[C@]34O)O2 (some centres unmarked) [Example 60] | 90 | 100 | 100 | 50 | –
